Tested on: human and porcine aortic smooth muscle cells and human aortic endothelial cells
Assay: Cytotoxicity, MTT assay
Assay type: cell-based
Conditions: up to 250 μM, 24 h at 37° C., without serum
From the text: The ability of the compounds of the present invention to inhibit smooth muscle cell proliferation and modulate endothelial cell growth was established using isolated aortic cells obtained from commercial sources or, for certain species, prepared in-house. Cell lines used in this study include human and porcine aortic smooth muscle cells and human aortic endothelial cells. Human aortic cell lines were obtained from Clonetics Corporation (San Diego).
Briefly, cells were again grown in 24 well plates to 70-80% confluency and, as before, serum deprived for 24-48 h prior to initiation of the experimental protocol. To insure that the MTT assay monitored toxicity rather than proliferation, cells were incubated with 250 μM drug in fresh medium without serum for 24 h at 37° C. in a humidified CO2 incubator. Upon completion of the compound treatment, MTT (3-[4,5-dimethylthiazol-2-yl]-2,5-diphenyltetrazolium bromide) indicator dye was added for 4 h at 37° C. Cells were then lysed and aliquots from each well were transferred to a 96 well plate for analysis. Absorbance at 570 nm wavelength with a reference wavelength of 630 nm was recorded using an ELISA plate reader. Results are reported as percent viable using no drug (100% viable) and pre-solubilization (0% viable) standards.

Cc1ccc(CO[C@@H]2O[C@H](COS(=O)(=O)O)[C@@H](O[C@H]3O[C@H](COS(=O)(=O)O)[C@@H](OS(=O)(=O)O)[C@H](OS(=O)(=O)O)[C@H]3OS(=O)(=O)O)[C@H](OS(=O)(=O)O)[C@H]2OS(=O)(=O)O)cc1NC(=O)c1cccc(NC(=O)Nc2cccc(C(=O)Nc3cc(CO[C@@H]4O[C@H](COS(=O)(=O)O)[C@@H](O[C@H]5O[C@H](COS(=O)(=O)O)[C@@H](OS(=O)(=O)O)[C@H](OS(=O)(=O)O)[C@H]5OS(=O)(=O)O)[C@H](OS(=O)(=O)O)[C@H]4OS(=O)(=O)O)ccc3C)c2)c1 [EXAMPLE 26, STEP 5]
cytotoxicity (MTT): No toxicity was observed up to 250 μM

Reference: US5498775A, “Polyanionic benzylglycosides as inhibitors of smooth muscle cell proliferation” (American Home Products Corporation, priority 1994, dated 1996)
